Results on four compounds are retold here after publication PMC11058275, “Targeted potent antimicrobial and antitumor oxygen-heterocyclic-based pyran analogues: synthesis and computational studies” (Scientific Reports, 2024).

Like-named read-outs stand apart in the source and are kept apart here.

Series [1] deals with Bacillus cereus (ATCC 10987). The series is described as follows: Agar diffusion antibacterial screening (inhibition zone). In kind it is cell-based. The conditions noted are these: ATCC10987, B. cereus, 1 mg/mL, Mueller–Hinton agar, read-out: Diameter of inhibition zone. The method, then:
(§1) The antibacterial activity of β-enamionitriles (4a-q) was screened using Mueller–Hinton agar medium for bacteria in an agar diffusion methodology. Ciprofloxacin (1 mg/mL) was the reference antibiotic drug used in the analysis of collections that included four gram-positive species of multi drug resistant pathogenic bacteria: Staphylococcus aureus (MRSA) (ATCC 6539), Staphylococcus aureus (ATCC 6538), Bacillus cereus (ATCC 10987), Bacillus subtilis (ATCC 6633), and two gram-negative species of multi drug resistant pathogenic bacteria Klebsiella pneumonia (ATCC 13883) and Escherichia coli (ATCC 8739). […] Using a 1 mg/mL concentration of compounds (4a-q), the minimum zone of inhibition (IZ, the area around the antimicrobial agent where bacterial growth is prevented) was established in mm ± standard deviation beyond the well diameter (6 mm). […] The synthetic compound's inhibitory effects on evaluation against these organisms are depicted in Fig. 9 and Table 1.
(§2) Compound 4a-q was screened for its in vitro antimicrobial activities against pathogenic bacteria species using the standard antibiotics Ampicillin, Gentamycin and Ketoconazole as reference drugs as reported previously. The minimum inhibitory concentration (MIC) was determined as previously reported. The antimicrobial activities were performed at the Regional Centre for Mycology & Biotechnology (RCMP), Al-Azhar University.

Series [2] deals with Bacillus subtilis (ATCC 6633). Described as above. In kind it is cell-based. The conditions noted are these: ATCC6633, B. subtilis, 1 mg/mL, Mueller–Hinton agar, read-out: Diameter of inhibition zone. The procedure:
as §1, §2

In series [3] the test system is Escherichia coli (ATCC 8739). The series is described as above. It is filed as cell-based. As to conditions: ATCC8739, E. coli, 1 mg/mL, Mueller–Hinton agar, read-out: Diameter of inhibition zone. The method, then:
as §1, §2

Series [4] has as its system Klebsiella pneumonia (ATCC 13883). The description is as above. In kind it is cell-based. As to conditions: Klebsiella pneumoniae, ATCC13883, K. pneumonia, 1 mg/mL, Mueller–Hinton agar, read-out: Diameter of inhibition zone. The procedure: as §1, §2
Series [5] has as its system Staphylococcus aureus (ATCC 6538). Described as above. The conditions noted are these: ATCC6538, S. aureus, 1 mg/mL, Mueller–Hinton agar, read-out: Diameter of inhibition zone. In kind it is cell-based. The method, then:
as §1, §2

In series [6] the test system is Staphylococcus aureus (MRSA) (ATCC 6539). The series is described as above. In kind it is cell-based. The conditions noted are these: read-out: Diameter of inhibition zone. The method, then:
as §1, §2

In series [7] the test system is HCT-116 (human colon cancer). Nature of the series: MTT cytotoxicity assay. It is filed as cell-based.
Text: (§3) The antiproliferative activity of the newly synthesized 1H-benzo[f]chromenes derivatives (4a-q) was examined in three human cancer cell lines: MCF-7 (breast cancer), HCT-116 (human colon cancer), and HepG-2 (hepatocellular carcinoma), as well as the two normal cell lines, HFL-1 (human foetal lung) and WI-38 (human diploid fibroblasts), using the 3-(4,5-dimethylthiazol-2-yl)-2,5-diphenyl tetrazolium bromide (MTT) colorimetric assay[56].
(§4) Compounds 4a-q was initially evaluated for in vitro antitumor activity against three different human cell lines: MCF-7, HCT-116 and HepG-2. In-vitro cytotoxicity evaluation was performed at the Regional Center for Mycology & Biotechnology (RCMP), Al-Azhar University under different concentrations (50, 25, 12.5, 6.25, 3.125, 1.56 and 0 µg/mL); vinblastine and doxorubicin are used as reference cytotoxic compounds.
For series [8], the system named is HepG-2 (hepatocellular carcinoma). The series is described as follows: MTT cytotoxicity assay. In kind it is cell-based. The conditions noted are these: Homo sapiens. (Tetrazolium assays rely on reduction of a dye to a coloured formazan, in cell work by metabolically active cells.)
Text: as §3, §4
Series [9] deals with HFL-1 (human foetal lung). Nature of the series: MTT cytotoxicity assay, normal cells. In kind it is cell-based. As to conditions: HFL1, HFL-1 normal cells, MTT, 24-h incubation, mean ± standard error, read-out: IC50 Normotoxicity HFL-1.
Text: as §3, §4
Series [10] deals with WI-38 (human diploid fibroblasts). Nature of the series: MTT cytotoxicity assay, normal cells. It is filed as cell-based. As to conditions: WI-38 normal cells, MTT, 24-h incubation, mean ± standard error, read-out: IC50 Normotoxicity WI-38.
Text: as §3, §4
The next series has as its system MCF-7 (breast cancer). The series is described as follows: MTT cytotoxicity assay. As to conditions: Homo sapiens.
The mark [11] stands for this setting: MTT, 24-h incubation, mean ± standard error, read-out: IC50 Cancerotoxicity HCT-116.
Where [12] appears, read: HepG2, MTT, 24-h incubation, mean ± standard error, read-out: IC50 Cancerotoxicity HepG-2.
The mark [13] stands for this setting: MCF7, 24 h, read-out: IC50 Cancerotoxicity MCF-7.
Where [14] appears, read: given in µg/mL, read-out: IC50 HCT-116.
The mark [15] stands for this setting: HepG2, given in µg/mL, read-out: IC50 HepG-2.

In general, zone of inhibition refers to the extent of the growth-free halo in a diffusion test. Broadly, the IC50 is the concentration that gives 50% inhibition. As a reminder, the melting point is the temperature, or range, at which the solid turns liquid.

Text for MCF-7 (breast cancer): as §3, §4

The compound `COc1ccc2c3c(ccc2c1)OC(N)=C(C#N)C3c1ccccc1Cl` (stereo not drawn) [Compound 4b, 3-Amino-1-(2-chlorophenyl)-8-methoxy-1H-benzo[f]chromene-2-carbonitrile] came in with a melting point of 265 to 266 °C. The zone of inhibition at 1000 µg/mL in [1] came out at 14 mm. Further, the zone of inhibition at 1000 µg/mL in series [2] amounted to 0 mm. Besides, the zone of inhibition at 1000 µg/mL in series [3] worked out at 12 mm. In series [4], the zone of inhibition at 1000 µg/mL came to 13 mm. Besides, the zone of inhibition at 1000 µg/mL in series [5] was 0 mm. Also, the zone of inhibition at 1000 µg/mL in series [6] turned out to be 13 mm. For the same compound, the IC50 in [7] (setting [11]) is 8.6 ± 0.25 µM. In addition, the 50% inhibitory concentration (IC50) in series [8] (setting [12]) stood at 6.1 ± 0.2 µM. Also, in [9], the half-maximal inhibitory concentration (IC50) worked out at 198.6 ± 0.1 µM. The concentration for half-maximal inhibition (IC50) in [10] came out at 171 ± 0.2 µM. The IC50 in the series on MCF-7 (breast cancer) (setting [13]) turned out to be 3.9 ± 0.18 µM.

In turn, `COc1ccc2c3c(ccc2c1)OC(N)=C(C#N)C3c1cc(Br)cc(Br)c1OC` (stereo not drawn) [Compound 4n, 3-amino-1-(3,5-dibromo-2-methoxyphenyl)-8-methoxy-1H-benzo[f]chromene-2-carbonitrile] yielded a melting point of 241 to 242 °C. For the same compound, the zone of inhibition at 1000 µg/mL in series [1] was 13 mm. Moreover, the zone of inhibition at 1000 µg/mL in series [2] is 0 mm. For the same compound, the zone of inhibition at 1000 µg/mL in series [3] is 0 mm. Further, the zone of inhibition at 1000 µg/mL in series [4] came out at 11 mm. In addition, in [5], the zone of inhibition at 1000 µg/mL is 0 mm. In addition, in [6], the zone of inhibition at 1000 µg/mL turned out to be 14 mm. For the same compound, the IC50 in series [7] (setting [11]) was 1.2 ± 0.06 µM. The concentration for half-maximal inhibition (IC50) in series [7] (setting [14]) was 0.6 ± 0.06 µg/mL. In series [8] (setting [12]), the IC50 stood at 5.6 ± 0.21 µM. Also, the half-inhibitory concentration (IC50) in series [8] (setting [15]) came out at 2.9 ± 0.21 µg/mL. Moreover, the IC50 in [9] turned out to be 139.5 ± 0.1 µM. The IC50 in [10] turned out to be 135.4 ± 0.3 µM. Also, the IC50 in the series with MCF-7 (breast cancer) (setting [13]) came to 1.4 ± 0.05 µM. Moreover, in the series on MCF-7 (breast cancer) (MCF7, read-out: IC50 MCF-7), the 50% inhibitory concentration (IC50) was found to be 0.7 ± 0.05 µg/mL.

Compound `COc1ccc2c3c(ccc2c1)OC(N)=C(C#N)C3c1ccc(Cl)cc1Cl` (stereo not drawn) [Compound 4j, 3-Amino-1-(2,4-dichlorophenyl)-8-methoxy-1H-benzo[f]chromene-2-carbonitrile] came in with a melting point of 285 to 286 °C. For the same compound, in series [1], the zone of inhibition at 1000 µg/mL is 8 mm. In addition, the zone of inhibition at 1000 µg/mL in series [2] is 0 mm. Further, in series [3], the zone of inhibition at 1000 µg/mL was 12 mm. Further, the zone of inhibition at 1000 µg/mL in [4] was 14 mm. Also, the zone of inhibition at 1000 µg/mL in series [5] turned out to be 0 mm. Moreover, the zone of inhibition at 1000 µg/mL in [6] came to 13 mm. Besides, in series [7] (setting [11]), the IC50 amounted to 5.8 ± 0.16 µM. Besides, the 50% inhibitory concentration (IC50) in series [8] (setting [12]) is 14.1 ± 0.18 µM. Further, the IC50 in series [9] was found to be 180.8 ± 0.3 µM. Moreover, the half-maximal inhibitory concentration (IC50) in series [10] was determined as 177.8 ± 0.3 µM. Also, the 50% inhibitory concentration (IC50) in the series with MCF-7 (breast cancer) (setting [13]) turned out to be 2 ± 0.02 µM.

Turning to `COc1ccc2c3c(ccc2c1)OC(N)=C(C#N)C3c1cccc(Cl)c1Cl` (stereo not drawn) [Compound 4i, 3-Amino-1-(2,3-dichlorophenyl)-8-methoxy-1H-benzo[f]chromene-2-carbonitrile], the melting point is 256 to 257 °C. Besides, the zone of inhibition at 1000 µg/mL in [1] amounted to 8 mm. In addition, the zone of inhibition at 1000 µg/mL in series [2] amounted to 0 mm. Also, in series [3], the zone of inhibition at 1000 µg/mL turned out to be 0 mm. Besides, the zone of inhibition at 1000 µg/mL in series [4] is 14 mm. Also, the zone of inhibition at 1000 µg/mL in series [5] was 0 mm. For the same compound, in series [6], the zone of inhibition at 1000 µg/mL is 13 mm. In addition, the IC50 in [7] (setting [11]) was determined as 3.5 ± 0.15 µM. Besides, in series [7] (setting [14]), the concentration for half-maximal inhibition (IC50) was 1.4 ± 0.15 µg/mL. Also, the IC50 in series [8] (setting [12]) amounted to 2.8 ± 0.17 µM. For the same compound, the IC50 in [8] (setting [15]) amounted to 11.1 ± 0.17 µg/mL. Further, in [9], the half-inhibitory concentration (IC50) is 154.5 ± 0.1 µM. Further, the IC50 in series [10] came to 160.1 ± 0.2 µM. Besides, the IC50 in the series with MCF-7 (breast cancer) (setting [13]) came out at 2.3 ± 0.01 µM. Moreover, the IC50 with MCF-7 (breast cancer) (MCF7, read-out: IC50 MCF-7) worked out at 0.9 ± 0.01 µg/mL.
